Laboratory results published in ChEMBL document CHEMBL3763155 (Bioorg Med Chem Lett, 2016).

How the values were obtained:
[1] = biological target: T1, Type-2 angiotensin II receptor (Homo sapiens, UniProt P50052); experiment: Binding affinity to type-2 angiotensin-2 receptor (unknown origin)
T1 sequence (P50052 whole entry): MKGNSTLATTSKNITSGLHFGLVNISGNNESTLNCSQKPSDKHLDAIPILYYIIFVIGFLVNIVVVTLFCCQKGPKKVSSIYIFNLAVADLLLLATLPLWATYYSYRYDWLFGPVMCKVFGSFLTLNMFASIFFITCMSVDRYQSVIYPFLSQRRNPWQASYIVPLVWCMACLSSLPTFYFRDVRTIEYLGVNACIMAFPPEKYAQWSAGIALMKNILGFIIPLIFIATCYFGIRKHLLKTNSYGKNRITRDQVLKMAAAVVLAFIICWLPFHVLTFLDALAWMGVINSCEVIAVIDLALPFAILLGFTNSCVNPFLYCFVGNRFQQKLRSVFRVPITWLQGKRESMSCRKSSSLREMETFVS

[2] = Displacement of 125I-[Sar1,Leu8] angiotensin-2 from rat type 1 angiotensin-2 receptor expressed in African green monkey COS7 cells after 24 hrs; assay type: cell-based; conditions: cos-7

SMILES	Ki [1] [nM]	IC50 [2] [nM]	Ki [2] [nM]
CCCCOC(=O)NS(=O)(=O)c1ccc(CC(C)C)cc1-c1ccc(Cn2c(CC)nc3c(C)cc(C)nc32)cc1		2.1	
CC[C@H](C)[C@H](NC(=O)[C@H](Cc1ccc(O)cc1)NC(=O)[C@@H](NC(=O)[C@H](CCCNC(=N)N)NC(=O)[C@@H](N)CC(=O)O)C(C)C)C(=O)N[C@@H](Cc1cnc[nH]1)C(=O)N1CCC[C@H]1C(=O)N[C@@H](Cc1ccccc1)C(=O)O [ANGIOTENSIN II]			0.95
CCCCOC(=O)NS(=O)(=O)c1sc(CC(C)C)cc1-c1ccc(Cn2ccnc2)cc1 [BULOXIBUTID]			> 10000
COc1ccc2c(c1OCc1ccccc1)C[C@@H](C(=O)O)N(C(=O)C(c1ccccc1)c1ccccc1)C2 [OLODANRIGAN]			409

Further lines, with some results ahead:

Ki [1] [nM]	IC50 [2] [nM]	SMILES	Ki [2] [nM]
> 10000		CCOc1nc2cccc(C(=O)O)c2n1Cc1ccc(-c2ccccc2-c2nnn[nH]2)cc1	0.17
	1.5	CCCCOC(=O)NS(=O)(=O)c1ccc(CCC)cc1-c1ccc(Cn2c(CC)nc3c(C)cc(C)nc32)cc1	
	12.1	CCCCc1nc(Cl)c(CO)n1Cc1ccc(-c2ccccc2-c2nnn[nH]2)cc1 [LOSARTAN]	
